# According to patent US20080280933A1, “BENZIMIDAZOLYL COMPOUNDS” (priority 2006, published 2008):
# Molecular target: T1, mGluR2 receptor (metabotropic glutamate receptor 2) (Homo sapiens, UniProt Q14416)
# T1 construct: expressed in transfected cells
# Assay: mGluR2 Potentiator Screen, FLIPR, EC10-EC20 glutamate challenge
# Assay type: cell-based
# Settings: mGluR2 potentiator screen, Table 7; read-out: EC50
# In short: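 HEK cells stably co-expressing mGluR2 and Gα15, kept glutamine-free overnight, were loaded with Fluo-4 plus probenecid and GPT/pyruvate. Compounds (top 10 μM) were added ≥30 min before an EC10–EC20 glutamate challenge. Peak FLIPR fluorescence ratios were curve-fitted, excluding points above maximal effect, with maxima from on-plate standards.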
# T1 sequence (Q14416 19-872, species assumed): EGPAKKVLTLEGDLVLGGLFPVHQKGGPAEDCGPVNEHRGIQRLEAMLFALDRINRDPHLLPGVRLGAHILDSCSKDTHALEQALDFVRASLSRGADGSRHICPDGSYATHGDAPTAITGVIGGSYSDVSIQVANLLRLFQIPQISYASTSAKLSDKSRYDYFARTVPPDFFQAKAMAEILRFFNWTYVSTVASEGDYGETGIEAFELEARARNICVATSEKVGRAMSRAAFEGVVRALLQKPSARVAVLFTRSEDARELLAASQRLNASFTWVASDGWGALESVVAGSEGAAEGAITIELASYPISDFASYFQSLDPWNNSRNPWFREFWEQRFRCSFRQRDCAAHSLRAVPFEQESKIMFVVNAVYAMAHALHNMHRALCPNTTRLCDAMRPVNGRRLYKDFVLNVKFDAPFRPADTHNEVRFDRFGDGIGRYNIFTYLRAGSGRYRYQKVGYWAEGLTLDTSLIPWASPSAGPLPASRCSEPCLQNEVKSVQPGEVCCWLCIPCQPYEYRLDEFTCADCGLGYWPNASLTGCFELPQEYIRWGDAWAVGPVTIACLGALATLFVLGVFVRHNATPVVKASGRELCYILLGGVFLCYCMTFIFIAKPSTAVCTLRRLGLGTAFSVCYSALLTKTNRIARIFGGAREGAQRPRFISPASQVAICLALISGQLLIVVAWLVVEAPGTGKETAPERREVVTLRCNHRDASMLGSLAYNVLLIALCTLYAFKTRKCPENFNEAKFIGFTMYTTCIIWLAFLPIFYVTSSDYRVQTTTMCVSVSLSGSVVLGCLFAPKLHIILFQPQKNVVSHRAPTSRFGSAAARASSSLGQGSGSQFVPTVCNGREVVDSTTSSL
row,EC50 [nM],Molecule
1,144,Cn1c(CN2CCC(c3ccccc3Cl)CC2)nc2ccccc21 [compound 161]
2,4100,Cn1c(CN2CCC(c3ccccc3)C2)nc2ccccc21 (centres unmarked) [compound 151]
3,136,COCCn1c(CN2CCC(c3cc(Cl)ccc3OCCC3CC3)CC2)nc2ccccc21 [compound 191]
4,246,CCCCOc1ccc(Cl)cc1C1CCN(Cc2nc3ccccc3n2CCF)CC1 [compound 186]
5,777,Clc1ccc(OCCC2CC2)c(C2CCN(Cc3nc4ccccc4n3C3CC3)CC2)c1 [compound 187]
6,355,CCCCOc1ccc(Cl)cc1C1CCN(Cc2nc3ccccc3n2CF)CC1 [compound 182]
7,623,COCCn1c(CN2CCC(c3cc(Cl)ccc3OCC3CC3C)CC2)nc2ccccc21 (centres unmarked) [compound 201]
8,447,CC[C@H](C)COc1ccc(Cl)cc1C1CCN(Cc2nc3ccccc3n2C)CC1 [compound 174]
9,4260,CCOc1ccc(Cl)cc1C1CCN(Cc2nc3ccccc3n2C)CC1 [compound 224]

# Same assay, conditions: read-out: EC50
row,EC50 [nM],Molecule
1,209,COCCn1c(CN2CCC(c3cc(Cl)ccc3OC)CC2)nc2ccccc21 [compound 230]
2,441,Cn1c(CN2CCC(c3cc(C(F)(F)F)ccc3F)CC2)nc2cc(C#N)ccc21 [compound 392]
3,157,Cn1c(CN2CCC(c3ccc(Cl)c(F)c3)CC2)nc2cccc(F)c21 [compound 453]
4,55.2,Cn1c(CN2CCC(c3ccc(F)cc3)CC2)nc2cccc(F)c21 [compound 342]
5,664,Cn1c(CN2CCC(c3ccc(Cl)cc3)CC2)nc2ccccc21 [compound 420]
6,128,COc1cc(C(F)(F)F)ccc1[C@H]1CCN(Cc2nc3ccccc3n2C)C[C@H]1C (relative stereo) [compound 459]
7,301,FCCn1c(CN2CCC(c3ccc(C(F)(F)F)cc3)CC2)nc2ccccc21 [compound 242]
8,1750,Cn1c(CN2CCC(c3ccccc3C(F)(F)F)CC2)nc2cc(Cl)ccc21 [compound 373]
9,307,COc1cc(C(F)(F)F)ccc1C1CCN(Cc2nc3cc(Cl)ccc3n2C)CC1 [compound 383]
10,5010,Cn1c(CN2CCC(c3ccc(C(F)(F)F)cc3)CC2)nc2cc(C(F)(F)F)ccc21 [compound 362]
11,189,Cn1c(CN2CCC(c3cc(F)cc(F)c3)CC2)nc2ccccc21 [compound 415]
12,821,FC(F)(F)c1ccc(C2CCN(Cc3nc4ccccc4n3C3CC3)CC2)cc1 [compound 247]
13,67.2,COc1cc(F)ccc1C1CCN(Cc2nc3cc(F)ccc3n2C)CC1 [compound 408]
14,40.2,Cn1c(CN2CCC(c3ccc(C(F)(F)F)cc3F)CC2)nc2c(F)cccc21 [compound 398]
15,1520,Cn1c(CN2CC[C@@H]3c4ccccc4OC[C@H]3C2)nc2ccccc21 [compound 470]
16,914,(2-((4-(2-Fluorophenyl)piperidin-1-yl)methyl)-1-methyl-1H-benzo[d]imidazol-5-yl)methanol [Entry 297]
17,4190,CN(C)CCCOc1ccccc1C1CCN(Cc2nc3ccccc3n2C)CC1 [compound 88]
18,328,Cn1c(CN2CCC(c3cc(F)cc(F)c3)CC2)nc2c(F)cccc21 [compound 395]
19,621,CC(C)OCCOc1ccccc1C1CCN(Cc2nc3ccccc3n2C)CC1 [compound 87]
20,80.7,CCOc1ccc(C2CCN(Cc3nc4ccccc4n3C)CC2)cc1 [compound 442]

row,EC50 [nM],Molecule
1,76.7,CC1CN(Cc2nc3ccccc3n2C)CCC1c1ccc(OC(F)(F)F)cc1F (centres unmarked) [compound 474]
2,1450,COc1ccccc1[C@H]1CCN(Cc2nc3ccccc3n2C2CC2)C[C@H]1C (relative stereo) [compound 338]
3,> 5640,CC(Oc1ccccc1C1CCN(Cc2nc3ccccc3n2C)CC1)c1ccccc1 (centres unmarked) [compound 103]
4,245,Cn1c(CN2CCC(c3cccc(C(F)(F)F)c3)CC2)nc2cc(F)ccc21 [compound 374]
5,37.4,Cc1cc(C)cc(C2CCN(Cc3nc4ccccc4n3C)CC2)c1 [compound 302]
6,131,Cn1c(CN2CCC(c3ccc(F)c(Cl)c3)CC2)nc2cccc(F)c21 [compound 444]
7,44.6,COc1ccc(-c2ccc3nc(CN4CCC(c5ccccc5F)CC4)n(C)c3c2)cn1 [compound 277]
8,471,COCn1c(CN2CCC(c3ccc(C(F)(F)F)cc3OC)CC2)nc2ccccc21 [compound 358]
9,422,Cn1c(CN2CCC(c3ccc(C(F)(F)F)cc3)CC2)nc2cc(F)c(F)cc21 [compound 260]
10,143,COc1ccccc1C1CCN(Cc2nc3ccccc3n2C)CC1C (centres unmarked) [compound 292]
11,3900,COc1cc(C(F)(F)F)ccc1C1CCN(Cc2nc3c(Br)cccc3n2C)CC1 [compound 356]
12,285,Cn1c(CN2CCC(c3cccc(C(F)(F)F)c3)CC2)nc2cc(C#N)ccc21 [compound 389]
13,475,CC(C)Oc1ccccc1C1CCN(Cc2nc3ccccc3n2C)CC1 [compound 78]
14,3300,Cc1cccc(NC(=O)c2cccc(C3CCN(Cc4nc5ccccc5n4C)CC3)c2)n1 [compound 435]
15,692,CC(C)Oc1ccccc1C1CCN(Cc2nc3cc(F)ccc3n2C)CC1 [compound 371]
16,45.6,Cn1c(CN2CCC(c3ccc(F)c(Cl)c3)CC2)nc2cc(F)ccc21 [compound 447]
17,5720,Cn1c(CN2CCC(c3ccc(C(F)(F)F)cc3)CCC2=O)nc2ccccc21 (centres unmarked) [compound 290]
18,2140,Cn1c(CN2CCC(c3ccc(F)cc3)CC2)nc2c(Br)cccc21 [compound 366]
19,850,COc1ccccc1C1CCN(Cc2nc3cc(F)c(F)cc3n2C)CC1C (centres unmarked) [compound 293]

row,Molecule,EC50 [nM]
1,COc1ccccc1C1(OC)CCN(Cc2nc3c(Br)cccc3n2C)CC1C (centres unmarked) [compound 333],4760
2,Cc1ccc2c(c1)C1(CCN(Cc3nc4ccccc4n3C)CC1)CN2C(=O)C1CC1 [compound 36],2330
3,Cn1c(CN2CCC3(CC2)CN(C(=O)C2CC2)c2ccc(Cl)cc23)nc2ccccc21 [compound 45],1120
4,CCC(CC)CN1CC2(CCN(Cc3nc4ccccc4n3C)CC2)c2cc(C)cc(C)c21 [compound 126],6010
5,Cn1c(CN2CCC3(CC2)CN(Cc2cccnc2)c2ccc(Cl)cc23)nc2ccccc21 [compound 108],> 8730
6,Cc1nnsc1C(=O)N1CC2(CCN(Cc3nc4ccccc4n3C)CC2)c2cc(F)ccc21 [compound 18],2450
7,CC(C)CCN1CC2(CCN(Cc3nc4ccccc4n3C)CC2)c2ccccc21 [compound 116],3120
8,COC(=O)c1cccc([C@]2(C)CCN(Cc3nc4ccccc4n3C)C[C@@H]2C)c1 [compound 81],6080
9,Cc1nnsc1C(=O)N1CC2(CCN(Cc3nc4ccccc4n3C)CC2)c2cc(Cl)ccc21 [compound 25],1350
10,Cn1c(CN2CCC3(CC2)CN(CC2CC2)c2ccccc23)nc2ccccc21 [compound 134],7380
11,CCCN1CC2(CCN(Cc3nc4ccccc4n3C)CC2)c2cc(F)ccc21 [compound 137],> 7890
12,Cn1c(CN2CCC3(CC2)CN(C(=O)COc2ccccc2)c2ccccc23)nc2ccccc21 [compound 57],508
13,Cc1cc(C)c2c(c1)C1(CCN(Cc3nc4ccccc4n3C)CC1)CN2CCC(C)C [compound 121],1150
14,CCCN1CC2(CCN(Cc3nc4ccccc4n3C)CC2)c2ccccc21 [compound 130],3080
